Results published in patent publication US8993721B2, “Peptides for targeting apoptotic cells and uses thereof” (Kyungpook National University Industry-Academic Cooperation …, priority 2008, dated 2015).
“Also recorded” adds a separate entry of the source. Where no end group is shown, it is not given here.

Experiments:
[1] = system: heart of myocardial ischemic rat (ischemia/reperfusion model); assay: Molecular imaging of myocardial ischemia (Example 7); type: in vivo; details: Cy7.5-labeled peptide i.v. 2 hours after reperfusion; imaged 2 hours after injection
Description: A myocardial ischemia model was established by occluding the coronary artery of a rat, followed by reperfusion (ischemia/reperfusion model). For the operation, a rat was anesthetized by intra-abdominally injecting 10 mg of phenobarbital and, followed by endobronchial intubation, a ventilator was connected. Thereafter, the thorax was cut open to expose the heart. The left anterior descending coronary artery was occluded for 30 minutes using a suture and, then, the blood was allowed to circulate. For a control group (Sham), the same operation was performed, except for the occlusion. Two hours after the reperfusion, the peptide having an amino sequence represented by SEQ ID NO: 1 (ApoPep-1), labeled with Cy7.5 NIR fluorescence, was intravenously injected to the rats of the myocardial ischemia group and the control group. Two hours after the peptide injection, NIR images of the heart portion were obtained. Then, NIR images were obtained after isolating the heart.

[2] = system: aorta of arteriosclerotic Ldlr(−/−) mouse; assay: Molecular imaging of arteriosclerosis (Example 5); type: in vivo
Description: An arteriosclerotic animal model was established by feeding mice, in which low-density lipoprotein (LDL) receptor was deficient (Ldlr(−/−)) genetically, with a high-cholesterol diet for 8 weeks. At the tail vein of the arteriosclerotic mouse and normal mouse, the peptide having an amino sequence represented by SEQ ID NO: 1 (ApoPep-1) or a control peptide, labeled with Cy7.5 NIR fluorescence, was injected at a final concentration of 50 μM, under isoflurane anesthesia. Two hours later, with the mouse anesthetized, in vivo images of the NIR fluorescence were obtained using an Optix exPlore instrument. Following the in vivo imaging, NIR fluorescence was measured […] after isolating the aorta.

apoptotic A549 cells = assay: Competitive inhibition of binding to apoptotic cells by annexin V treatment (Example 3-2); type: cell-based, human; details: annexin V 1000 μM pre-treatment
Description: In order to further investigate the binding properties of the peptide of the present invention (ApoPep-1) to apoptotic cells, competitive inhibition by annexin V was measured. To this end, first, apoptotic A549 cells were pre-treated with annexin V, not labeled with fluorescence, at concentrations of 0, 200 and […]. Then, after reacting the cells with fluorescence-labeled annexin V under the same condition as described in Example <3-1>, the binding of the cells was observed under a fluorescence microscope.
Further, apoptotic A549 cells were pre-treated with annexin V, not labeled with fluorescence, at a concentration of 1000 μM. Then, after reacting the cells with fluorescence-labeled peptide under the same condition as described in Example <3-1>, the binding of the cells was observed under a fluorescence microscope.

[3] = system: necrosis-induced A549 cells (glucose-depleted medium); assay: Microscopic observation of binding of the peptide to necrotic cells (Example 9-4); type: cell-based, human; details: glucose-depleted medium 24 hours; 10 μM fluorescein-labeled peptide 4° C. 1 hour
Description: A549 Cells were cultured in chamber slide (Nunc) and treated with glucose-depleted medium for 24 hours to induce necrosis. The necrosis-induced cells were washed with PBS and blocked with 1% BSA at 37° C. for 30 minutes. Then, the cells were reacted with 10 μM of the peptide labeled with fluorescein, at 4° C. for 1 hour. After washing, the cells were reacted with […] Hoechst […] dye and […] PI at 37° C. for 15 minutes. The cells were washed with PBS and then fixed with 4% paraformaldehyde for 5 minutes.

CQRPPR (also: fluorescein or Cy7.5 label) [ApoPep-1, peptide CQRPPR screened for macrophages; used fluorescein- or Cy7.5-labeled]
NIR fluorescence of the heart portion, myocardial ischemic rat versus control group (Sham) rat [1]: much stronger NIR fluorescence | NIR fluorescence imaged from the back, normal mouse ([2]; Cy7.5-labeled peptide 50 μM): almost nonexistent | NIR fluorescence imaged from the back, arteriosclerotic mouse, compared with control peptide ([2]; Cy7.5-labeled peptide 50 μM, tail vein, two hours later): stronger NIR fluorescence | NIR fluorescence after exposing the aorta by cutting the abdomen open, compared with control peptide ([2]; arteriosclerotic mouse): much stronger | intensity of the fluorescence relative to the control peptide ([2]; arteriosclerotic mouse, back image (FIG. 8B)): about two times that of the control peptide | binding of fluorescence-labeled peptide after pre-treatment with unlabeled annexin V (apoptotic A549 cells): not inhibited

CSVAPR (also: fluorescein or Cy7.5 label) [ApoPep-2, peptide CSVAPR screened for endothelial cells; used fluorescein- or Cy7.5-labeled]
labeling of glucose-depleted necrotic cells [3]: did not bind to the necrosis-induced cells; also recorded: no labeling was observed
